The text below walks through data of US20200371122A1, “BIOMARKER FOR SENESCENT CELLS” (Buck Institute for Research on Aging, priority 2017, published 2020).

Common to all, as to assay type: cell-based, human
Assay [1] has as its system MCF7. Description: Cleaved caspase-3 immunofluorescence in breast cancer cells. The settings on record: p53-positive cell line, 10 μM, 3 days. As for the experimental part: (§1) Human fetal lung fibroblasts (IMR-90) were cultured in Dulbecco's modified eagle medium (DMEM) supplemented with 10% FBS and penicillin/streptomycin. LL 29 (AnHa) cells were obtained from the ATCC and growth to confluence using the ATCC protocol, but were subcultured as described for IMR-90 before initiation of all experiments. Quiescence was induced by replacing culture media with media containing 0.2% FBS. MCF-7 and MDA-MB-231 breast cancer cells were cultured in RPMI supplemented with 10% FBS and penicillin/streptomycin. All cells were cultured at 3% O2, and used between 25 and 40 population doublings. All cells were mycoplasma free.
(§2) For EdU labeling, cells were cultured with EdU (10 μM) for 24 h, fixed in 4% buffered formalin for 10 min, washed in PBS, and permeabilized in 0.5% Triton X-100 for 30 min. Cells were treated as instructed by the manufacturer Life Technologies Cat #C10337). For immunofluorescence, cells were blocked in 10% normal goat serum for 30 min, washed, and incubated overnight in antibodies to Ki67 (Abcam) or cleaved caspase 3 (Cell Signaling). Cell were then washed, incubated in fluorescent secondary antibodies, and mounted using vectashield mounting medium with DAPI.

The subject of assay [2] is MDA-MB-231. The description is as above. The settings on record: p53-mutant cell line, 10 μM, 3 days. As for the experimental part:
as §1, §2

The test system of assay [3] is IMR-90 fibroblasts. Description: Sensitisation to IR-induced senescence by senescence-equivalent dose of 15d-PGJ2. The conditions noted are these: 1.4 μM.
From the text: Senescence was induced by irradiation with 10 Gy of ionizing radiation. Non-senescent controls (proliferating or quiescent) were placed in the irradiator for an identical period of time without turning on the irradiator. Oncogene-induced senescence was induced via lentiviral overexpression of HRAS^V12, as described previously (Wiley et al. (2016) Cell Metab. 23: 303-314).
SA-Bgal activity was detected as described previously (Dimri et al. (1995) Proc. Natl. Acad. Sci. USA, 92: 9363-9367) using a commercial kit (Biovision).
as §2

Turning to `CCCCC/C=C/C=C1/C(=O)C=C[C@@H]1C/C=C\CCCC(=O)O` [15d-PGJ2], the “apoptosis (cleaved caspase-3)” value was “did not” in assay [1] and “induced apoptosis” in assay [2]. Also, the “SA-beta-galactosidase, EdU incorporation and cell number versus DMSO” value in assay [3] (10 Gy IR, 10 days) is on record as “no differences”. In addition, the “senescence versus control cells” value in assay [3] (lower doses of IR, 10 days) is “more senescent relative to control cells”. For the same compound, in assay [3] (no IR), the induction of senescence result is listed as “did not induce senescence on its own”.
